Test results from ChEMBL document CHEMBL1201862, “PubChem BioAssay data set” (2004).
The source made the active and inactive calls.

Columns and labels:
[1] = target: T1, Sentrin-specific protease 1 (Homo sapiens, UniProt Q9P0U3); assay: SENP1 catalytic domain blockers, concentration series – biochemical, kinetic FRET, dose response (AID 651697); format: functional; conditions: read-out: IC50_Mean
T1 sequence (Q9P0U3 whole entry): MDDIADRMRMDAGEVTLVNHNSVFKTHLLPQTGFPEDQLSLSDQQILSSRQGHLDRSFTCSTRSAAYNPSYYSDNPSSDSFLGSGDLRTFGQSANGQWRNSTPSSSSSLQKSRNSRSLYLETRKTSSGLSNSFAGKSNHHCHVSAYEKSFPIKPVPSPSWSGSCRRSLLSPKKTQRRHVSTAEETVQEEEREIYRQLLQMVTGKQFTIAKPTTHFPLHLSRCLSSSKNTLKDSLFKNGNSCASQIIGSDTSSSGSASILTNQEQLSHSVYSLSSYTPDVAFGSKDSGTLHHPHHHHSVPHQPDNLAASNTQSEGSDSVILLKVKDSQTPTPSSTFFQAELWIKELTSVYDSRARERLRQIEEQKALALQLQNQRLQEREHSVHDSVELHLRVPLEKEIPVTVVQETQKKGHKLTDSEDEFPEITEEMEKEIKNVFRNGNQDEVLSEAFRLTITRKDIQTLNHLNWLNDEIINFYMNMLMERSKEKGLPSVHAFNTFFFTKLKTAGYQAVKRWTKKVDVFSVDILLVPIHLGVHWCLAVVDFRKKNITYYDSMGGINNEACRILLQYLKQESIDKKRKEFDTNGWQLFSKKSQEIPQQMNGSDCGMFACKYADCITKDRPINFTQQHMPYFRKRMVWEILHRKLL

[2] = target: T1, Sentrin-specific protease 1; assay: Dose response confirmation of small molecule inhibitors of the catalytic domain of the SUMO protease, SENP1 in a FRET assay.; format: functional; conditions: read-out: IC50_Mean
Orexin receptor type 2 [3] = target: T2, Orexin receptor type 2 (Homo sapiens, UniProt O43614); assay: Counterscreen assay for antagonists of the orexin 1 receptor (OX1R; HCRTR1): Homogeneous Time Resolved Fluorescence (HTRF)-based cell-based dose response assay for antagonists of the orexin 2 receptor (OX2R; HCRTR2), run by assay provider.; format: functional
T2 sequence (O43614 whole entry): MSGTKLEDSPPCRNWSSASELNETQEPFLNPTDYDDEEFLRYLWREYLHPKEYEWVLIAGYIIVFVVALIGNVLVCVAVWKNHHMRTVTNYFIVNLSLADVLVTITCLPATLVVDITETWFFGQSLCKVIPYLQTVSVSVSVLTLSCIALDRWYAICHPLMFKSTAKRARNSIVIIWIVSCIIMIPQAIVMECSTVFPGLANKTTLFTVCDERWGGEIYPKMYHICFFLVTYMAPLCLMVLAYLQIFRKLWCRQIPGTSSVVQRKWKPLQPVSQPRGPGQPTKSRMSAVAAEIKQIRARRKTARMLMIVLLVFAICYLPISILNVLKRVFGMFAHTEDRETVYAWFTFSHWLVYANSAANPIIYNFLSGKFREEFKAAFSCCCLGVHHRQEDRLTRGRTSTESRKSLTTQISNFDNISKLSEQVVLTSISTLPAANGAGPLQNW

[4] = target: T3, Orexin/Hypocretin receptor type 1 (Homo sapiens, UniProt O43613); assay: Homogeneous Time Resolved Fluorescence (HTRF)-based cell-based high throughput dose response assay for antagonists of the orexin 1 receptor (OX1R; HCRTR1). [Related pubchem assays (depositor defined):AID434989, AID435008, AID463079, AID485270, AID492963, AID492964, AID492965, AID493232, AID504717, AID504718]; format: functional
T3 sequence (O43613 whole entry): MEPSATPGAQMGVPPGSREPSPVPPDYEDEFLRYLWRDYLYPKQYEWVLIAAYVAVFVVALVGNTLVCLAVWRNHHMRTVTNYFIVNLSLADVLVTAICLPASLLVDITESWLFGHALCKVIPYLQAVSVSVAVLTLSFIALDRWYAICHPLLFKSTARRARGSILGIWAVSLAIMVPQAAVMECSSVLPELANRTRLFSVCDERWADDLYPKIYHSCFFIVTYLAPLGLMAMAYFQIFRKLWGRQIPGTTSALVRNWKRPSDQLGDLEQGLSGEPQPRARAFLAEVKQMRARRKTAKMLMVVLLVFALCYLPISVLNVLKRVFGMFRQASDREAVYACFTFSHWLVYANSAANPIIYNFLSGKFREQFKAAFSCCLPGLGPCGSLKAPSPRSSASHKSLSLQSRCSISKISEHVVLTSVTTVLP

[5] = target: T3, Orexin/Hypocretin receptor type 1; assay: Fluorescence-based cell-based high throughput dose response assay for antagonists of the orexin 1 receptor (OX1R; HCRTR1). [Related pubchem assays (depositor defined):AID434989, AID435008, AID463079, AID485270, AID492963, AID492964, AID492965, AID493232, AID504717, AID504718]; format: functional
[6] = (§1) Counterscreen for antagonists of the orexin 1 receptor (OX1R; HCRTR1): Fluorescence-based cell-based high throughput dose response assay to identify antagonists of the parental CHO cell line. [Related pubchem assays (depositor defined):AID434989, AID435008, AID463079, AID485270, AID492963, AID492964, AID492965, AID493232, AID504699, AID504701]; format: functional
Orexin receptor type 2 [7] = target: T2, Orexin receptor type 2; assay: Counterscreen assay for antagonists of the orexin 1 receptor (OX1R; HCRTR1): Fluorescence-based cell-based dose response assay for antagonists of the orexin 2 receptor (OX2R; HCRTR2), run by assay provider.; format: functional
CHO-K1 = assay: as §1, with “Homogeneous time resolved fluorescence (HTRF)-based” for “Fluorescence-based”, “cell-based” for “cell-based high throughput”, “CHO-K1” for “CHO”; format: functional; conditions: Cricetulus griseus
[8] = target: T4, Low molecular weight phosphotyrosine protein phosphatase (Homo sapiens, UniProt P24666); format: functional; conditions: read-out: IC50_Mean
[9] = target: T4, Low molecular weight phosphotyrosine protein phosphatase; format: functional; conditions: read-out: IC50_Mean; remark: listed apart in the source
Protein Wnt-3a = Protein Wnt-3a (Mus musculus, UniProt P27467); assay: antagonism of Wnt3a pathway luciferase reporter – Wnt-LIGHT cells, luminescence, selectivity assay for Gli-SUFU antagonist project, dose response (AID 651570); format: functional; conditions: read-out: IC50_Mean;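 further: Wnt-LIGHT reporter cells stimulated with conditioned medium from Wnt3a-producing cells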
[10] = Luminescence Cell-Based Dose Response HTS to Identify Inhibitors of 5'UTR Stem-Loop Driven Prion Protein mRNA Translation in H4 Neuroglioblastoma Cells. [Related pubchem assays: 1827 (Project Summary), 1813 (Primary HTS)]; format: functional
[11] = viability of uninfected HEp-2 cells – cell-based, HTS, cytotoxicity control for RSV inhibitor project, dose response (AID 2410); format: functional; conditions: human respiratory syncytial virus
[12] = target: T5, Heat shock factor protein 1 (Mus musculus, UniProt P38532); assay: decrease of HSF1-responsive luciferase luminescence – cell-based, NIH3T3, dose retest, confirmation (AID 2382); format: functional;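 further: NIH3T3 fibroblasts with HSF1-driven luciferase reporter stressed by proteasome inhibitor MG132; luminescence from HSF1-driven luciferase expression after 8 hours of MG132 stress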
T5 sequence (P38532 whole entry): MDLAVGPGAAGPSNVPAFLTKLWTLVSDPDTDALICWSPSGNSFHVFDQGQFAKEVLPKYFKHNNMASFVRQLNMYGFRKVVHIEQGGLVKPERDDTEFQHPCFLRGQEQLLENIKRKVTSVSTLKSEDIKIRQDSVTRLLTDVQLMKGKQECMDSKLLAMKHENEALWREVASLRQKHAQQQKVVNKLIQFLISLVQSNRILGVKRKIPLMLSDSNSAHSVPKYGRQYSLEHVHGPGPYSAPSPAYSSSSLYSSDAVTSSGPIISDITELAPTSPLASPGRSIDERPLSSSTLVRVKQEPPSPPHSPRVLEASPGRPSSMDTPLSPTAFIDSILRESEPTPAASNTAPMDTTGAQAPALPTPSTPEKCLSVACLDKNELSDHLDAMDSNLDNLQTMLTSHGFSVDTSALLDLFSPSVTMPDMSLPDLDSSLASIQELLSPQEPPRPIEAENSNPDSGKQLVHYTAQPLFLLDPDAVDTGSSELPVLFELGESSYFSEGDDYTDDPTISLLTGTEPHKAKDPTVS

[13] = luciferase reporter signal suppression in cells – H4 neuroglioma cells, luminescence, dose response (AID 1990); format: functional, cell-based
[14] = alpha-synuclein stem-loop luciferase translation blockers – H4 neuroglioma cells, luminescence, confirmation (AID 1988); format: functional, cell-based
[15] = target: Ras and Rab interactor 1/Tyrosine-protein kinase ABL1 (Homo sapiens, UniProt P00519+Q13671); format: functional;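 further: biochemical TR-FRET dose-response test measuring inhibition of binding between Rin1 and Abl proteins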
[16] = target: T6, ATP-dependent translocase ABCB1 (Homo sapiens, UniProt P08183); assay: P-gp JC-1 efflux blockade concentration-response – Jurkat-DNR cells, flow cytometry, set 2, dose response (AID 504569); format: functional; conditions: read-out: EC50_MICROM_;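 further: potency of pump inhibitors that raise cellular JC-1 green fluorescence up to the nicardipine level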
[17] = target: T6, ATP-dependent translocase ABCB1; assay: inhibition of BCRP-mediated JC-1 efflux – Ig-MXP3 cells, flow cytometry, set 2, dose response (AID 504566); format: functional; conditions: read-out: EC50_MICROM_;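 further: flow cytometry median green fluorescence of retained JC-1 dye; potency of efflux pump inhibition measured as rising substrate retention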
[18] = target: T7, Neuropeptide Y receptor type 1 (Homo sapiens, UniProt P25929); format: functional;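 further: HEK293 cells with a CNG channel challenged with NPY then isoproterenol; potency as antagonist that reverses NPY suppression of cAMP signal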
T7 sequence (P25929 whole entry): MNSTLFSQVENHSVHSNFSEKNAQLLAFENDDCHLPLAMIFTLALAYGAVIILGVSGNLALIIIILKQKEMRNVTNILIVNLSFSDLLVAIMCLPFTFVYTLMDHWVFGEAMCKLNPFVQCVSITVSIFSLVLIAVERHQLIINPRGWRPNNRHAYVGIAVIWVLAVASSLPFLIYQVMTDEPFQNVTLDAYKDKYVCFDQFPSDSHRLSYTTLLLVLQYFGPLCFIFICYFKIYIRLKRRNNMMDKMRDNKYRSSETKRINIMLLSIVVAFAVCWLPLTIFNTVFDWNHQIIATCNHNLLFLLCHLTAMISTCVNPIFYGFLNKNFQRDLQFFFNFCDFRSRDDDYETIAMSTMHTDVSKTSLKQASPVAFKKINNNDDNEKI

[19] = target: T8, Neuropeptide Y receptor type 2 (Homo sapiens, UniProt P49146); format: functional, cell-based;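 further: HEK293 cells expressing the receptor and a CNG channel; stimulus was NPY near EC95 followed by isoproterenol to raise cAMP; antagonist potency measured as restoring cAMP signal that NPY suppresses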
T8 sequence (P49146 whole entry): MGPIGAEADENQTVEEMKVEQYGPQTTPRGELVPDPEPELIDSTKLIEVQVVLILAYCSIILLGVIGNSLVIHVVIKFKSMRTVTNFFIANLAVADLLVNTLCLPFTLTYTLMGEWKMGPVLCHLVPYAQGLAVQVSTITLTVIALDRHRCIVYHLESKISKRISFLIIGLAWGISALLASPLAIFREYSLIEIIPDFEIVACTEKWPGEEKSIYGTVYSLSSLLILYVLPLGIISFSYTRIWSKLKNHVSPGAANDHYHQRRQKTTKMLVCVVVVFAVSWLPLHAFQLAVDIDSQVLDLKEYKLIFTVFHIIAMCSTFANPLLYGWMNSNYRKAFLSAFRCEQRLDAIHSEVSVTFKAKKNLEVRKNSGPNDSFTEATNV

[20] = target: T9, Mitochondrial peptide methionine sulfoxide reductase (Bos taurus, UniProt P54149); format: functional;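 further: absorbance read-out, biochemical high-throughput dose-response screen for MsrA inhibitors, confirmatory; recombinant bovine MsrA coupled to E. coli TrxB with NADPH and selenocystamine; potency is for inhibitors of MsrA activity on DMSO substrate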
T9 sequence (P54149 whole entry): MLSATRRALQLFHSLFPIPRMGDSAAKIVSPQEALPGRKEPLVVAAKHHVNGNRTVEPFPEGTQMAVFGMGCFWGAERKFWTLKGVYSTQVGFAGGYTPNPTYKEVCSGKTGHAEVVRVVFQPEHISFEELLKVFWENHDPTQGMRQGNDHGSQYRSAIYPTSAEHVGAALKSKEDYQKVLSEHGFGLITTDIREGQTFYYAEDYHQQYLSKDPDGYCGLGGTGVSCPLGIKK

T4 sequence (P24666 whole entry): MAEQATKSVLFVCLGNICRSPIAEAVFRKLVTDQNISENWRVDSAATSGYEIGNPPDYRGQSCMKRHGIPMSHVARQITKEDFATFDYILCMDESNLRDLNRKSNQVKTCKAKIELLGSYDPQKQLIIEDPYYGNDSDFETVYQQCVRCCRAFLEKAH
T6 sequence (P08183 whole entry): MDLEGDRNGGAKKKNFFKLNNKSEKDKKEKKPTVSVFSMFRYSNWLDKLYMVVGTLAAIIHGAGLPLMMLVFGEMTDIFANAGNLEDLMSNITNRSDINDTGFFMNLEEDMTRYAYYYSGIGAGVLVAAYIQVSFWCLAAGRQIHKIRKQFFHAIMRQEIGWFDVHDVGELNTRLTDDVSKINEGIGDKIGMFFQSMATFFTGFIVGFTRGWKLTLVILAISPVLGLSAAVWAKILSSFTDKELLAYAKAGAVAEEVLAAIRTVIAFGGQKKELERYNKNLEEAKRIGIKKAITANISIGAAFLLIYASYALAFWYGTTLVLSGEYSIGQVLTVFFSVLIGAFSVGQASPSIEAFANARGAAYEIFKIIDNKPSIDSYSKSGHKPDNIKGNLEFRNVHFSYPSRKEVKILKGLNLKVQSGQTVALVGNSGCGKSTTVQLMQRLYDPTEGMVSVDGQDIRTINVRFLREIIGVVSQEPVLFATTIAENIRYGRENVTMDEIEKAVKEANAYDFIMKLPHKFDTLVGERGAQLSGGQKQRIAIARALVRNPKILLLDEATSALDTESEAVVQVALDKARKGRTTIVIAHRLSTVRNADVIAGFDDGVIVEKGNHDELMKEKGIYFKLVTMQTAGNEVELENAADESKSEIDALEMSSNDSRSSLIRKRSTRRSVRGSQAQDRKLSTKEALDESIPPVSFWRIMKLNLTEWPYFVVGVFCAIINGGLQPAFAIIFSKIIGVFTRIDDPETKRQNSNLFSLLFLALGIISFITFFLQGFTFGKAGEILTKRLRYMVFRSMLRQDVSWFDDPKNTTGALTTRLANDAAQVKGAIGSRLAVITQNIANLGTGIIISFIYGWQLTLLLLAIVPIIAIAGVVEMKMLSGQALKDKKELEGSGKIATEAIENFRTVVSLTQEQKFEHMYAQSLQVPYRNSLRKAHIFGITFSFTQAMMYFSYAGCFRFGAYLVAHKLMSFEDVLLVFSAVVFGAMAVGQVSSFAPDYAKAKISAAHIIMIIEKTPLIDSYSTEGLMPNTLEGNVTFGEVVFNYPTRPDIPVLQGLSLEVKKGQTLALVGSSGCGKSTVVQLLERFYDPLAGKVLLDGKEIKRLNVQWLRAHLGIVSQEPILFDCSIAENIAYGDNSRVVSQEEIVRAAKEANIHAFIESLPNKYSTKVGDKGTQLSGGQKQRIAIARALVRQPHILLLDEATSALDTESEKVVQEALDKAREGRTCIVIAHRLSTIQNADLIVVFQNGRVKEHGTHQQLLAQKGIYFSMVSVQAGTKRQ
Protein Wnt-3a, sequence (P27467 whole entry): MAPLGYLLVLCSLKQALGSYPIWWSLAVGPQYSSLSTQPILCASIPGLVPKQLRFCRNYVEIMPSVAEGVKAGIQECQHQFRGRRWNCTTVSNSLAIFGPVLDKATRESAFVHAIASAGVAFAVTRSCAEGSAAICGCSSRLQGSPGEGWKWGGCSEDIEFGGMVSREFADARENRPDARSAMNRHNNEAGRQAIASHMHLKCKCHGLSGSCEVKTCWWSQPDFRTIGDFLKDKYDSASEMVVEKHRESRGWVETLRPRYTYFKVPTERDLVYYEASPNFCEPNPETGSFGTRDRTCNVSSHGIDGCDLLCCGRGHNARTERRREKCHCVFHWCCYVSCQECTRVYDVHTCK
Ras and Rab interactor 1/Tyrosine-protein kinase ABL1, sequence (P00519 whole entry): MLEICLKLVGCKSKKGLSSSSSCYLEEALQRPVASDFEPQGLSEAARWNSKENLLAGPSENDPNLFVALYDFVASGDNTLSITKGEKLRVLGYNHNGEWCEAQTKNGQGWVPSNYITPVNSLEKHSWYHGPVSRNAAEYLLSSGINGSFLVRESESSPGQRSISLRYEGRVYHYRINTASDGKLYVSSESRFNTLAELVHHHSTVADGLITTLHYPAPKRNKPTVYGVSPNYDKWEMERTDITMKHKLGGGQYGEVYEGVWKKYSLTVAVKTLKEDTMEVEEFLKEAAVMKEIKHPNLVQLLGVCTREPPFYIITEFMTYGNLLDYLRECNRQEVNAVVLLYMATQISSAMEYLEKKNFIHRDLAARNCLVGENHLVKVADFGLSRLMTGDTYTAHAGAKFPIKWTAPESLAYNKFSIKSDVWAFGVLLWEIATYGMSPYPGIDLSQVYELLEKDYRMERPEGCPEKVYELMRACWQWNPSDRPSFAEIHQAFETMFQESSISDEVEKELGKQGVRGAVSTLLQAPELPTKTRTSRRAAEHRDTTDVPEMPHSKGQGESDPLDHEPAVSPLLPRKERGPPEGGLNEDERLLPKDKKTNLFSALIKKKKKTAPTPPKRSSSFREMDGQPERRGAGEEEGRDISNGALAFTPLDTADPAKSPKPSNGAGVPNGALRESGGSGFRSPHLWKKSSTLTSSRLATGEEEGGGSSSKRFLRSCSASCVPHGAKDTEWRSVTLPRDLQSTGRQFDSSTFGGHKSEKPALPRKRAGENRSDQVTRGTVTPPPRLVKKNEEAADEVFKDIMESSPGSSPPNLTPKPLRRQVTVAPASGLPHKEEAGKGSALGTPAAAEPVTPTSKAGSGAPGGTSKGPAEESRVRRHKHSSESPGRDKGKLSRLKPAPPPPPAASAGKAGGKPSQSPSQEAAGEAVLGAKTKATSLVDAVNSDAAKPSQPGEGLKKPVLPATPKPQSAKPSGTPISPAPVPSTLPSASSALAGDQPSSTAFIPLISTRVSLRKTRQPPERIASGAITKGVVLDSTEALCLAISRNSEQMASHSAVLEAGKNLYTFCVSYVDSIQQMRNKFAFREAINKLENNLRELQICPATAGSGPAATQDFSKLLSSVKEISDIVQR
Ras and Rab interactor 1/Tyrosine-protein kinase ABL1, sequence (Q13671 whole entry): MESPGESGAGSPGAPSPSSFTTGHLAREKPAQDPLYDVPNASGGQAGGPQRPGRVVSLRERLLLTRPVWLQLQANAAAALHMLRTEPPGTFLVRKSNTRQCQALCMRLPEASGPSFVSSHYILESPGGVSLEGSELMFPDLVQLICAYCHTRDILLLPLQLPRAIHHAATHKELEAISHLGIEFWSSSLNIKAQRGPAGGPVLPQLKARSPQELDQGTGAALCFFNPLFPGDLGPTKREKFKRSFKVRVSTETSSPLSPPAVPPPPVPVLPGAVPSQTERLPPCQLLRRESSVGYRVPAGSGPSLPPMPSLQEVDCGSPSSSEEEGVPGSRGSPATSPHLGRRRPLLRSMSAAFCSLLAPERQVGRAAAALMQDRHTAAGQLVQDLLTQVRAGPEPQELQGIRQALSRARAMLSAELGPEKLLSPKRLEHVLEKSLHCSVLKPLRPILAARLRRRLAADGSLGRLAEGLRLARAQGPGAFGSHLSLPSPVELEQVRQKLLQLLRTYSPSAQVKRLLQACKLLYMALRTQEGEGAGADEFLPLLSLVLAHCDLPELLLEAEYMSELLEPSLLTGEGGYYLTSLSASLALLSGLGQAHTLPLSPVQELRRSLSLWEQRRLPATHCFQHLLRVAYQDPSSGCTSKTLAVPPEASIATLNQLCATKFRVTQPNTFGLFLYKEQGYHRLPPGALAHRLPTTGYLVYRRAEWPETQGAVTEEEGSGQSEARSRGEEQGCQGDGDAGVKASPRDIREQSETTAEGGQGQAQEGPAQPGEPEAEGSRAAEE

## CCc1nnc(NC(=O)CCN2C(=O)/C(=C/c3cc(OC)c(OC)c(OC)c3)SC2=S)s1
[1]
  IC50: 29.9 µM (inactive)
[2]
  IC50: 13.3 µM (active)

## Cc1ccc(C)c(NP(=O)(Oc2ccccc2)Oc2ccccc2)c1
Orexin receptor type 2 [3]
  IC50: > 50 µM (inactive)
[4]
  IC50: 5.47 µM (active)
[5]
  IC50: 26.3 µM (inactive)
[6]
  IC50: 49 µM (inactive)
Orexin receptor type 2 [7]
  IC50: > 88.8 µM (inactive)
CHO-K1
  IC50: > 66.2 µM (inactive)

## Oc1c2c(nc3cc(-c4ccc(Cl)cc4)nn13)CCS2
[8]
  IC50: 16.3 µM (active)
[9]
  IC50: 13.4 µM (active)

## Cc1ccc2c(c1)c(C)cc[n+]2Cc1ccccc1
Protein Wnt-3a
  IC50: 15.3 µM (active)

## Cc1nc2c(ccc3nc(NC(=O)Cc4cccc5ccccc45)sc32)s1
Orexin receptor type 2 [3]
  IC50: > 50 µM (inactive)
[10]
  EC50: > 120 µM (not active)
[11]
  CC50: 12.2 µM (active)
[4]
  IC50: 1.45 µM (active)
[12]
  EC50: > 195 µM (not active)
[5]
  IC50: 5.34 µM (active)
[6]
  IC50: > 49.7 µM (inactive)
[13]
  EC50: 16.3 µM (active)
Orexin receptor type 2 [7]
  IC50: 17.6 µM (inactive)
[14]
  EC50: > 60 µM (not active)
CHO-K1
  IC50: > 66.2 µM (inactive)

## Cc1cc(S(=O)(=O)N2CCN(C(=O)CCC(=O)N3CCOCC3)CC2)ccc1Br
[15]
  IC50: 21.5 µM (inactive)

## CC(C)(C)c1cc2nc(C(F)(F)F)cc(N3CCN(C(=O)c4cccs4)CC3)n2n1
[16]
  EC50: 6.06 µM (active)
[17]
  EC50: 1.59 µM (active)

## CCc1nnc(S)n1/N=C/c1cc(Br)c(OC)cc1OC
[18]
  IC50: > 35 µM (not active)
[19]
  IC50: > 35 µM (not active)
[20]
  IC50: 155 µM (inactive)
